# Measured values taken from a melting point compilation (Tetko et al.; mined from patent text by program, amines drawn as free bases though some values may be those of a salt).
row,melting point [°C],Compound
1,163 to 165,CNC(=O)COc1cc(C)ccc1O
2,151 to 154,Oc1ccc(OCCCCCCCCOc2ccc(O)cc2)cc1
3,250 to 260,O=[N+]([O-])c1ccc(C=Cc2nc(Nc3ccc(O)cc3)c3ccccc3n2)o1
4,124 to 127,O=C(c1cn(-c2cccc(-c3ccccc3)c2)cn1)n1cccn1
5,161 to 164,C[C@@H]1CN(c2ncc3ncnc(Nc4ccc(F)c(Cl)c4)c3n2)CC[C@@H]1N (relative stereo)
6,313 to 316,O=C1Cc2cc(-c3cnc4[nH]c(=O)n(CC5CCCCC5)c4n3)ccc2N1
7,104 to 107,COC(=O)C1=C(C)NC(C)=C(C(=O)OCCN2CCN(C(c3ccc(Cl)cc3)c3ccc(Cl)cc3)CC2)C1c1cccc(Cl)c1Cl (stereo unspecified)
8,295 to 297,O=c1[nH]c2ncc(-c3ccc(-c4nnc[nH]4)cc3)nc2n1CCN1CCOCC1
9,135 to 136,O=C(CCCl)Nc1ccc(C(=O)c2ccccc2)cc1
10,187 to 189,CN1CCC(c2nn(C(=O)c3ccc(Cl)c(Cl)c3)c3ccccc23)CC1
11,265,Cc1ccc2c(c1)Cn1ccnc1N2
12,204 to 206,CCOC(=Cc1ccc(C(=O)OC)cc1)c1ccc2c(c1)C(C)(C)CCC2(C)C
13,105 to 107,COc1ccc(N2CCCN(c3c(C)c(C)c4c(c3C)CC(C)(C)O4)CC2)cc1
14,93 to 95,CC1(C)NCC(c2ccccc2)=NO1
15,145 to 147,CC(C)(C)C(=O)CC(=O)Nc1cc(OC(=O)c2cc(C(C)(C)C)c(O)c(C(C)(C)C)c2)ccc1Cl
16,80 to 82,O=C(C=Cc1cccnc1)NCCCCC1CCN(C(=O)c2cccc3c2-c2ccccc2C3=O)CC1
17,228 to 231,CC1=C(C)C(O)N(c2nc3ccc(OC(F)(F)F)cc3s2)C1=O (stereo unspecified)
18,220 to 222,CSc1nc2c(cc1F)c(=O)[nH]c(=O)n2C1CC1
19,129 to 131,CCOC(=O)c1cc2c(OCc3ccccc3)c(Cc3ccccc3)ccc2[nH]1
20,265 to 266,N[C@@H](CCC1CCCCC1)C(=O)O
21,271 to 273,CC1(C)CC(=O)c2c(ncc3[nH]c4cc(F)ccc4c23)C1
22,185,COc1ccc(Cl)cc1C(=O)NCCc1ccc(-c2ccc(Cl)cc2)c(S(N)(=O)=O)c1
23,137 to 139,O=S(=O)(CS(=O)(=O)C1CCCCC1)C1CCCCC1
24,128,CNCc1cn(S(=O)(=O)c2ccccc2)c(-c2cccnc2F)c1F
25,224 to 227,COc1ccc(-n2nc(C)c3c(C(=O)Nc4c(C)ccnc4C)cc(C)nc32)cc1

row,melting point [°C],Compound
1,134 to 136,Cc1cccc2c(-c3ccc(F)cc3)onc12
2,178 to 180,COCCOc1cc2ncnc(NC3=CC(=O)C(N(C)C4CCCCC4)=CC3=O)c2cc1OC
3,116 to 117,CCNC(=O)C(C)NC(=O)OCc1ccccc1 (stereo unspecified)
4,155 to 158,O=C(NCCO)c1csc(C(=O)NCCO)n1
5,115 to 118,CC(N)=CC(=O)CS(=O)(=O)N(C)Cc1ccccc1
6,209 to 210,Cc1ncc([N+](=O)[O-])n1CCN1C(=O)NC(c2ccccc2)(c2ccccc2)C1=O
7,92 to 94,CCCOc1cccc(NC(=O)c2ccccc2C)c1
8,173 to 175,COc1ccc(C2(c3ccc(OC)cc3)CC2(Br)Br)cc1
9,109 to 110,Cc1oc(-c2ccco2)nc1COc1ccc(COc2nn(Cc3ccc(OCc4nc(-c5ccco5)oc4C)cc3)cc2C=O)cc1
10,84 to 87,CNc1sc(-c2cccnc2)nc1C
11,76 to 77,COc1ccc(CNc2n[nH]cc2C)cc1OC1CCCC1
12,135 to 136,CC(=O)c1c(Cl)nc2n(c1=O)CCS2
13,62.5 to 63,O=C(CCCCCCCCC(=O)Oc1ccc(C(=O)OCc2ccccc2)cc1)Oc1ccc(C(=O)OCc2ccccc2)cc1
14,152 to 156,N#CC1C2OCC(O2)C(OCc2ccccc2)C1O (stereo unspecified)
15,158 to 159,Cc1ccccc1COc1cccnc1NC(=N)Nc1ccc(Cl)cc1
16,208 to 210,Cc1cn(-c2cc(C#N)c(N)c(C(F)(F)F)c2)c(C)n1
17,67,CCCc1c(O)c(Br)cc(C(C)=O)c1O
18,212 to 214,CC1(C)Cc2c(sc(N)c2C(N)=O)CO1
19,87 to 89,COc1ccc(COC(=O)[C@H]2CC[C@H](C(=O)O)CC2)cc1
20,48 to 50,COc1ccc(SCc2ccccc2)cc1
21,102 to 103,O=C1N[C@H](C(=O)NCCO[N+](=O)[O-])CO1
22,101 to 103,Cc1[nH]cnc1CSCCSC#N
23,120 to 122,O=C(c1cc(-c2ccc(F)cc2)c(-c2ccc(F)cc2)s1)C(F)(F)F
24,224 to 227,CC(C)OC(=O)COc1ccc(NC(=O)NC(=O)c2ccc(C(N)=S)cc2)cc1
25,166 to 167,COC(=O)C1=C(C)NC(C)=C(C(=O)OCCN)C1c1cccc(Cl)c1Cl (stereo unspecified)

row,melting point [°C],Compound
1,166 to 169,O=C(NCCNS(=O)(=O)c1ccc(Oc2ccccc2)cc1)P(=O)(O)O
2,54 to 56,O=C=Nc1ccc(Cl)cc1[N+](=O)[O-]
3,56 to 58,CSc1cc(C(C)(C)C)nn1C(=O)N(C)C
4,217 to 220,CCCc1nc2c(N)nc3cc(-c4ccccc4)ccc3c2n1NC(C)C
5,112 to 113,Cc1oc(-c2ccco2)nc1COc1ccc(CON=C(CCCCC(=O)O)c2ccccc2)cc1
6,150 to 151,CCCc1nc2c(N)nc3ccccc3c2n1CCCCC(=O)N(C)OC
7,> 330,Nc1cc2[nH]c(=O)c(=O)[nH]c2cc1[N+](=O)[O-]
8,206 to 208,Cc1cc2nc(NC(=O)CO)sc2cc1C
9,63 to 64,COc1ccc(OCCCCCCO)cc1
10,> 200,N#Cc1ccc(-c2cnc3c(c2)N(Cc2ccccc2)C(=O)CN3)cn1
11,91 to 92,CC(C)CC(NC(=O)OC(C)(C)C)C(=O)NCCC(=O)O (stereo unspecified)
12,132 to 133,COc1ccc(CCNc2nc(Cl)ccc2[N+](=O)[O-])cc1OC
13,177 to 179,CCOC(=O)c1cccc(S(=O)(=O)NC(=O)Nc2nc(C)nc(OC)n2)c1I
14,> 265,Cc1ccc(C)n1-c1cc2[nH]c(=O)c(=O)n(CC(=O)O)c2cc1Cl
15,180,COC(=O)Cc1cccc(-c2nc(=O)c3ccccc3s2)n1
16,129 to 133,Cc1ccc(S(=O)(=O)c2ccc3c(c2)c(CCN(C)C(=O)OC(C)(C)C)c(C)n3C)cc1
17,63,Cc1ccc(C)n1-c1c(Cl)cc(C(F)(F)F)cc1Cl
18,96 to 98,CCOC1Nc2c(Br)cc(Br)cc2S(=O)(=O)N1 (stereo unspecified)
19,152 to 155,CCOC(CNC(=S)Nc1ccn(C)n1)OCC
20,123 to 124,CCOC(=O)c1cnc(-c2ccccc2OC(C)C)[nH]c1=O
21,228 to 229,CNc1nc(C)c(-c2cn3ccccc3n2)s1
22,137 to 141,COCc1c(S(C)(=O)=O)ccc(C(=O)O)c1Cl
23,197 to 199,CC(C)CC(=O)Nc1c(C(=O)c2cccc(Cl)c2)[nH]c2ccc([N+](=O)[O-])cc12
24,56 to 58,O=C(O)CCCCSc1nc2c(F)c(F)cc(F)c2s1
25,68 to 68.4,COC(=O)[C@@H]1COC(=S)N1C(C)=O

row,melting point [°C],Compound
1,123 to 125,CSc1ccc(S(=O)(=O)N2CCCC2=O)cc1
2,185 to 187,O=C1Cc2cccc(C(=O)c3ccc(F)cc3)c2N1
3,225 to 226,Cc1sc2nc(SCCCN3CCN(c4ccc5ccccc5n4)CC3)[nH]c(=O)c2c1C
4,181 to 182,CN(C)CCNC1=CC(=O)c2oc(-c3cc(F)ccc3F)nc2C1=O
5,> 200,N#Cc1c(N2CCc3ccccc3CC2)nc2[nH]ccn2c1=O
6,173 to 175,CN1CNC(=S)N(c2ccc(N(C)C)cc2)C1
7,103 to 106,O=C1CCc2cc(-c3cccnc3)ccc21
8,76 to 78,Cc1cccc(OCCO)c1
9,182 to 184,COC(=O)[C@H]1CC[C@H](n2ccn(-c3ccc(C4(C)CCN(C(=O)C(F)(F)F)CC4)cc3)c2=O)CC1
10,98,CC(=O)Nc1ccc(S(=O)(=O)NCCc2ccccc2)cc1
11,< 50,CC(C)C1Cc2cc(C=O)sc2C1 (stereo unspecified)
12,178,COC(=O)CCC(=O)c1ccc(NC(=O)C(C)C)c(N)c1
13,53,CON=Cc1cc(Cl)cc(Cl)c1
14,95 to 96,CC(=O)c1ccc(NS(C)(=O)=O)c(Oc2ccc(F)cc2)c1
15,121 to 123,CCCc1c(O)c(C(C)=O)cc2c(=O)cc(C(=O)OC)n(CC)c12
16,178 to 182,Cc1ccc(C(=O)OCCOC(=O)NC2(C(=O)O)CC2)cc1
17,163 to 166,CCC(O)C1C(N2CCN(C)CC2)=Nc2ccccc2N=C1N1CCN(C)CC1 (stereo unspecified)
18,122 to 124,CN1CCSC1=NC(=Nc1ccccc1)N1CCCCC1
19,257 to 259,O=C(Cc1c(-c2ccccc2)c2cc3c(cc2oc1=O)CCC3)Nc1c(Cl)cncc1Cl
20,140,O=C(Cl)c1cc(Cl)cc2c1OCCO2
21,110 to 114,CCOC(=O)CCCCOc1ccc(-c2nc(N3CCOCC3)c3sc(CN4CCN(S(C)(=O)=O)CC4)cc3n2)cc1
22,134 to 135,O=C(NCc1ccccn1)Nc1cc(N2CC(COCc3ccccc3)OC2=O)ccn1 (stereo unspecified)
23,150 to 152,O=C1CCC(c2ccc(N3C(=O)c4ccccc4C3=O)cc2)CC1
24,136 to 138,CCCCc1nc2c(N)nc3cccnc3c2s1

row,Compound,melting point [°C]
1,C=C1C[C@@H]2[C@H](CC[C@]3(C)C(=O)CC[C@@H]23)[C@@]2(C)CCC(=O)C(SCC)=C12,140 to 145
2,COc1cccc(F)c1CCl,87 to 89
3,CNC(=O)Oc1ccc2c(c1)CCN2,109 to 112
4,O=C(O)CNC(=O)c1c(O)n(C2CCCC2)c(=O)n(C2CCCCC2)c1=O,222 to 224
5,CCCN(CCC)Cc1cnc(-c2ncn3c2CN(C)C(=O)c2cc(F)ccc2-3)o1,123 to 125
6,OC1(c2ccc(-c3ccccn3)cc2)CN2CCC1CC2 (stereo unspecified),237 to 238
7,CC(C)(C)N[C@@H]1Cc2cccc(O)c2C[C@H]1O (relative stereo),97 to 102
